Test results as given in US8859545B2, “Tetrahydronaphthyridine and tetrahydropyrido[4,3-D]pyrimidine compounds and compositions thereof useful for the treatment of inflammatory and respiratory diseases” (Evotec AG, priority 2005, dated 2014).
Counter-ions that a name gives are not always drawn.

system: P2X2/3 chimera (P2X2/3C); test: Calcium uptake assay (P2X antagonist assay, agonist-induced calcium influx); type: cell-based; settings: at 3 μM (symbol before the slash)
Source text: Human P2X3 (Accession no. NM_002559), P2X2 (Accession no. NM_170682) and Rat P2X3 (Accession no. NM_031075) and P2X2 (Accession no. NM_053656) are cloned into a mammalian expression vector (e.g., pcDNA5/TO or pcDNA3 Invitrogen). For coexpression of P2X2 and P2X3, the coding regions of both receptors were cloned into a bicistronic vector using methods similar to those described by Kawashima et al., Receptors Channels 5:53-60, 1998. The P2X2/3 chimera clone was created as described by Neelands et al, and then cloned into an expression vector as above. Receptors are expressed in cells (e.g., HEK293 or 1321N1) via transient transfection using standard lipid mediated transfection, or by creation of stable transfectants for each receptor. Cell lines are maintained in DMEM+5% Glutamax, the appropriate level of selective antibiotic, and 10% heat inactivated FBS.
The agonist EC50 is determined at the start of the assay and compound IC50 experiments are run using a set agonist concentration (EC50-90 depending on cell line) as stimulus. The agonists used are αβMeATP, ATP, or other ATP analogs. Compounds may be tested at concentrations ranging from 1 μM to 10 μM. Functional activity of compounds at the P2X receptor is determined by measuring their ability to inhibit agonist-induced calcium influx. Compounds may be tested for antagonist activity against the P2X2/3 chimera, the P2X3 homomer, or the P2X2/3 heteromer. To test for antagonist activity, cells expressing the appropriate receptor are seeded onto 96 or 384 well plates 18-24 hours prior to assay. On the day of the assay, cells are loaded with calcium-sensitive fluorescent dye (e.g., Fluo-4 no wash reagent-Invitrogen cat# F36206, or the BD™ PBX Calcium Assay Kit-BD cat#640175) in Hank's Buffered Salt Solution (HBSS) with up to 10 mM supplemental CaCl2. Plates are incubated at 37° C. and then equilibrated at room temperature. Antagonism of agonist-induced calcium influx is measured using a fluorescent imaging plate reader. The assay comprises two stages: a pre-treatment phase followed by a treatment phase. Compounds may be tested as follows: For the pre-treatment phase, 50 μL of 3× concentration of test compound in HBSS is added to cells containing 100 μL of dye loading media to achieve a final concentration of 1×. For the treatment phase, at a set interval after pre-treatment, 50 μL of 1× test compound plus 4× agonist solution is added to cells. Fluorescence is measured at 0.1-3 second intervals with an excitation wavelength of 494 nm and an emission wavelength of 515 nm. Responses are measured as peak fluorescence after compound-agonist addition minus baseline fluorescence prior to treatment. Percent inhibition is calculated as follows: […]
A calcium uptake assay was performed as described in paragraphs […] above.

Compound | Ca Influx P2X2/3C % Inhibition at 3 μM/10 μM
Cc1ccc(N2CCc3ncnc(N(C)Cc4ccc(Cl)cc4)c3C2)nc1 [Compound 62] | +/ (compound exhibited 0-25% inhibition at 3 μM)
COc1cccc(CN(C)c2ncnc3c2CN(c2ccc(C)cn2)CC3)c1 [Compound 64] | +/ (compound exhibited 0-25% inhibition at 3 μM)
Cc1ccc(N2CCc3ncnc(NCc4cccc(Cl)c4)c3C2)nc1 [Compound 55] | ++++/ ^ (compound exhibited 75% or greater inhibition at 3 μM)
Cc1ccc(N2CCc3ncnc(NCc4ccccc4OC(F)F)c3C2)nc1 [Compound 52] | ++++/ ^ (compound exhibited 75% or greater inhibition at 3 μM)
COc1ccc(CN(C)c2ncnc3c2CN(c2ccc(C)cn2)CC3)cc1 [Compound 68] | +/ (compound exhibited 0-25% inhibition at 3 μM)
Cc1ccc(N2CCc3ncnc(NCc4ccc(C)cc4C)c3C2)nc1 [Compound 79] | ++/ (compound exhibited 25-50% inhibition at 3 μM)
Cc1ccc(N2CCc3ncnc(NCc4ccc(C(F)(F)F)cc4F)c3C2)nc1 [Compound 121] | ++++/ ^ (compound exhibited 75% or greater inhibition at 3 μM)
Cc1ccc(N2CCc3ncnc(NCc4cccc(F)c4)c3C2)nc1 [Compound 57] | ++++/ ^ (compound exhibited 75% or greater inhibition at 3 μM)
Cc1ccc(CCNc2ncnc3c2CN(c2ccc(C)cn2)CC3)cc1 [Compound 49] | ++++/ ^ (compound exhibited 75% or greater inhibition at 3 μM)
Cc1ccc(N2CCc3ncnc(NCc4ccccc4Cl)c3C2)nc1 [Compound 30] | ++++/ ^ (compound exhibited 75% or greater inhibition at 3 μM)
COc1ccc(CCNc2ncnc3c2CN(c2ccc(C)cn2)CC3)cc1 [Compound 35] | ++++/ ^ (compound exhibited 75% or greater inhibition at 3 μM)
Cc1ccc(N2CCc3ncnc(NCCc4ccc(Cl)c(Cl)c4)c3C2)nc1 [Compound 54] | +++/ ^ (compound exhibited 50-75% inhibition at 3 μM)
Cc1ccc(N2CCc3ncnc(NCc4cccc(F)c4F)c3C2)nc1 [Compound 77] | ++++/ ^ (compound exhibited 75% or greater inhibition at 3 μM)
Cc1ccc(N2CCc3ncnc(NC(C)c4ccc(F)cc4)c3C2)nc1 (stereo not drawn) [Compound 86] | ++++/ ^ (compound exhibited 75% or greater inhibition at 3 μM)
COc1cccc(CCNc2ncnc3c2CN(c2ccc(C)cn2)CC3)c1 [Compound 46] | ++++/ ^ (compound exhibited 75% or greater inhibition at 3 μM)
Cc1ccc(N2CCc3ncnc(NCc4ccc(C(F)(F)F)cc4)c3C2)nc1 [Compound 50] | ++++/ ^ (compound exhibited 75% or greater inhibition at 3 μM)
Cc1ccc(CNc2ncnc3c2CN(c2ccc(C)cn2)CC3)cc1 [Compound 56] | ++++/ ^ (compound exhibited 75% or greater inhibition at 3 μM)

Compound | Ca Influx P2X2/3C % Inhibition at 3 μM/10 μM
COc1ccc(CNc2ncnc3c2CN(c2ccc(C)cn2)CC3)cc1 [Compound 53] | ++++/ ^ (compound exhibited 75% or greater inhibition at 3 μM)
Cc1ccc(N2CCc3ncnc(N(C)Cc4cccc(Cl)c4)c3C2)nc1 [Compound 66] | +/ (compound exhibited 0-25% inhibition at 3 μM)
Cc1ccc(CN(C)c2ncnc3c2CN(c2ccc(C)cn2)CC3)cc1 [Compound 70] | ++/ (compound exhibited 25-50% inhibition at 3 μM)
COc1cc(CCNc2ncnc3c2CN(c2ccc(C)cn2)CC3)cc(OC)c1 [Compound 51] | +++/ ^ (compound exhibited 50-75% inhibition at 3 μM)
COc1cc(CNc2ncnc3c2CN(c2ccc(C)cn2)CC3)cc(OC)c1 [Compound 87] | +/ (compound exhibited 0-25% inhibition at 3 μM)
Cc1ccc(N2CCc3ncnc(NCc4ccccc4C(F)(F)F)c3C2)nc1 [Compound 39] | +++/ ^ (compound exhibited 50-75% inhibition at 3 μM)
Cc1ccc(N2CCc3ncnc(NCc4ccc(OC(F)(F)F)cc4)c3C2)nc1 [Compound 40] | +++/ ^ (compound exhibited 50-75% inhibition at 3 μM)
Cc1ccc(N2CCc3ncnc(NCc4ccc(F)c(F)c4)c3C2)nc1 [Compound 73] | ++++/ ^ (compound exhibited 75% or greater inhibition at 3 μM)
Cc1ccc(N2CCc3ncnc(NCc4ccc(Cl)cc4)c3C2)nc1 [Compound 25] | ++++/ ^ (compound exhibited 75% or greater inhibition at 3 μM)
Cc1ccc(N2CCc3ncnc(NCCc4ccccc4)c3C2)nc1 [Compound 45] | ++++/ ^ (compound exhibited 75% or greater inhibition at 3 μM)
O=S(=O)(c1ccc(Nc2ncnc3c2CN(c2ncccc2Cl)CC3)cc1)C(F)(F)F [Compound 6, 6-(3-Chloropyridin-2-yl)-5,6,7,8-tetrahydro-N-(4-(trifluoromethylsulfonyl)phenyl)pyrido[4,3-d]pyrimidin-4-amine] | +/ (compound exhibited 0-25% inhibition at 3 μM)
Cc1ccc(N2CCc3ncnc(NCc4ccc(Cl)c(Cl)c4)c3C2)nc1 [Compound 85] | +/ (compound exhibited 0-25% inhibition at 3 μM)
Cc1ccc(N2CCc3ncnc(N(C)Cc4ccc(F)cc4)c3C2)nc1 [Compound 67] | + (compound exhibited 0-25% inhibition at 3 μM)
Cc1ccc(N2CCc3ncnc(NCc4ccccc4OC(F)(F)F)c3C2)nc1 [Compound 42] | ++++/ ^ (compound exhibited 75% or greater inhibition at 3 μM)
Cc1ccc(N2CCc3ncnc(NCc4ccc(F)c(C)c4)c3C2)nc1 [Compound 98] | ++++/ ^ (compound exhibited 75% or greater inhibition at 3 μM)
Cc1ccc(N2CCc3ncnc(NCc4cccc(C(F)(F)F)c4)c3C2)nc1 [Compound 38] | +++/ ^ (compound exhibited 50-75% inhibition at 3 μM)

same assay, conditions: at 10 μM (symbol after the slash)

Compound | Ca Influx P2X2/3C % Inhibition at 3 μM/10 μM
CC(C)(C)c1ccc(Nc2ncnc3c2CN(c2ncccc2Cl)CC3)cn1 [Compound 17, (6-tert-Butyl-pyridin-3-yl)-[6-(3-chloro-pyridin-2-yl)-5,6,7,8-tetrahydro-pyrido[4,3-d]pyrimidin-4-yl]-amine] | /* (compound exhibited 0-25% inhibition at 10 μM)
Cc1ccc(N2CCc3ncnc(Nc4ccc(C(F)(F)F)cc4)c3C2)cc1 [Compound 12, N-(4-(Trifluoromethyl)phenyl)-5,6,7,8-tetrahydro-6-p-tolylpyrido[4,3-d]pyrimidin-4-amine] | /* (compound exhibited 0-25% inhibition at 10 μM)
Cc1ccc(N2CCc3ncnc(NCC4CCCCC4)c3C2)nc1 [Compound 26] | /**** (compound exhibited 25-50% inhibition at 10 μM)
FC(F)(F)c1ccc(Nc2ncnc3c2CN(c2ncccc2Cl)CC3)cn1 [Compound 4, 6-(3-Chloropyridin-2-yl)-N-(6-(trifluoromethyl)pyridin-3-yl)-5,6,7,8-tetrahydropyrido[4,3-d]pyrimidin-4-amine] | /* (compound exhibited 0-25% inhibition at 10 μM)
CC1(C)CNc2cc(Nc3ncnc4c3CN(c3ncccc3Cl)CC4)ccc21 [Compound 15, [6-(3-Chloro-pyridin-2-yl)-5,6,7,8-tetrahydro-pyrido[4,3-d]pyrimidin-4-yl]-(3,3-dimethyl-2,3-dihydro-1H-indol-6-yl)-amine HCl salt] | /* (compound exhibited 0-25% inhibition at 10 μM)
COc1ccccc1CNc1ncnc2c1CN(c1ccc(C)cn1)CC2 [Compound 27] | /**** (compound exhibited 25-50% inhibition at 10 μM)
Cc1ccc(N2CCc3ncnc(NCc4ccccc4C)c3C2)nc1 [Compound 24] | /**** (compound exhibited 25-50% inhibition at 10 μM)
Cc1ccc(N2CCc3ncnc(N(C)Cc4ccc(F)cc4)c3C2)nc1 [Compound 67] | *** (compound exhibited 25-50% inhibition at 10 μM)
CC1(C)C(=O)Nc2cc(Nc3ncnc4c3CN(c3ncccc3Cl)CC4)ccc21 [Compound 13, 6-[6-(3-Chloro-pyridin-2-yl)-5,6,7,8-tetrahydro-pyrido[4,3-d]pyrimidin-4-ylamino]-3,3-dimethyl-1,3-dihydro-indol-2-one] | /* (compound exhibited 0-25% inhibition at 10 μM)
